Experiments:
WI-38 [1] = test: Cell cycle arrest in human WI-38 cells assessed as accumulation in G0/G1 phase at IC50 concentration incubated for 48 hrs by propidium iodide staining based flow cytometry analysis (reference value: 57.68 %); details: wi-38, 48 h
WI-38 [2] = test: Induction of apoptosis in human WI-38 cells assessed as early apoptotic cells at IC50 incubated for 48 hrs by annexin-V FITC and propidium iodide staining based flow cytometry analysis (reference value: 0.39 %); type: cell-based; details: wi-38, 48 h
HL-60(TB) = test: Antiproliferative activity against human HL-60(TB) cells assessed as inhibition of cell growth measured after 48 hrs by SRB assay; type: functional
HOP-62 = test: Antiproliferative activity against human HOP-62 cells assessed as inhibition of cell growth measured after 48 hrs by SRB assay; type: functional
UACC-257 = test: Antiproliferative activity against human UACC-257 cells assessed as inhibition of cell growth measured after 48 hrs by SRB assay; type: functional
T47D = test: Antiproliferative activity against human T47D cells assessed as inhibition of cell growth at 10 uM measured after 48 hrs by SRB assay relative to control; type: functional
NCI-H322M = test: Antiproliferative activity against human NCI-H322M cells assessed as inhibition of cell growth measured after 48 hrs by SRB assay; type: functional
SK-MEL-28 = test: Antiproliferative activity against human SK-MEL-28 cells assessed as inhibition of cell growth measured after 48 hrs by SRB assay; type: functional
HCT-116 [3] = test: Induction of apoptosis in human HCT116 cells assessed as up regulation of caspase-8 expression by RT-PCR analysis relative to untreated control; type: functional
NCI-H460 = test: Antiproliferative activity against human NCI-H460 cells assessed as inhibition of cell growth at 10 uM measured after 48 hrs by SRB assay relative to control; type: functional
MOLT-4 = test: Antiproliferative activity against human MOLT-4 cells assessed as inhibition of cell growth measured after 48 hrs by SRB assay; type: functional
SNB-75 = test: Antiproliferative activity against human SNB-75 cells assessed as inhibition of cell growth measured after 48 hrs by SRB assay; type: functional
Hs-578T = test: Antiproliferative activity against human Hs-578T cells assessed as inhibition of cell growth measured after 48 hrs by SRB assay; type: functional
NCI/ADR-RES = test: Antiproliferative activity against human NCI/ADR-RES cells assessed as inhibition of cell growth at 10 uM measured after 48 hrs by SRB assay relative to control; type: functional
HCT-116 [4] = test: Induction of apoptosis in human HCT116 cells assessed as up regulation of cytochrome C expression by RT-PCR analysis relative to untreated control; type: functional
EKVX = test: Antiproliferative activity against human EKVX cells assessed as inhibition of cell growth measured after 48 hrs by SRB assay; type: functional
HCT-116 [5] = test: Cell cycle arrest in human HCT-116 cells assessed as accumulation in S phase phase at IC50 concentration incubated for 48 hrs by propidium iodide staining based flow cytometry analysis (reference value: 41.34 %); type: functional
M14 = test: Antiproliferative activity against human M14 cells assessed as inhibition of cell growth measured after 48 hrs by SRB assay; type: functional
[6] = read-out: LC50 (the source's name)

COc1ccc(-n2c(=S)sc3c(Cl)nc(C)nc32)c(OC)c1
Activity (WI-38 [1]): 54.45% | Activity (WI-38 [2]): 3.59% | GI50 (HL-60(TB)): 1.41 µM | TGI (HL-60(TB)): 5.89 µM | CC50 (HL-60(TB); [6]): > 100 µM | GI50 (HOP-62): 2.57 µM | TGI (HOP-62): 7.76 µM | CC50 (HOP-62; [6]): 26.9 µM | GI50 (UACC-257): 2.34 µM | TGI (UACC-257): 5.62 µM | CC50 (UACC-257; [6]): 18.2 µM | inhibition at 10 µM (T47D): > 50% | GI50 (NCI-H322M): 2.51 µM | TGI (NCI-H322M): 6.46 µM | CC50 (NCI-H322M; [6]): 22.4 µM | GI50 (SK-MEL-28): 2.19 µM | TGI (SK-MEL-28): 4.57 µM | CC50 (SK-MEL-28; [6]): 9.77 µM | fold change (FC) (HCT-116 [3]): 7.9 | inhibition at 10 µM (NCI-H460): > 50% | GI50 (MOLT-4): 2.14 µM | TGI (MOLT-4): 5.5 µM | CC50 (MOLT-4; [6]): > 100 µM | GI50 (SNB-75): 1.95 µM | TGI (SNB-75): 4.27 µM | CC50 (SNB-75; [6]): 9.33 µM | GI50 (Hs-578T): 2.63 µM | TGI (Hs-578T): 7.76 µM | CC50 (Hs-578T; [6]): > 100 µM | inhibition at 10 µM (NCI/ADR-RES): > 50% | fold change (FC) (HCT-116 [4]): 8.02 | GI50 (EKVX): 4.57 µM | TGI (EKVX): 17 µM | CC50 (EKVX; [6]): 43.6 µM | Activity (HCT-116 [5]): 30.1% | GI50 (M14): 1.86 µM | TGI (M14): 4.07 µM | CC50 (M14; [6]): 8.91 µM
